Source: PMC1762332, “Catalases Are NAD(P)H-Dependent Tellurite Reductases” (PLoS ONE, 2006)

Assays:
[1] = target: T1, S. epidermidis CH katA (catalase) (Staphylococcus epidermidis, UniProt Q2PUJ9); assay: in-gel tellurite reductase activity after native PAGE of recombinant E. coli extract; assay type: biochemical; conditions: 1 mM K2TeO3, 1 mM NADH, 1 mM 2-mercaptoethanol, potassium phosphate pH 7, 37 °C, 12 h
T1 construct: katA coding region (1,515 bp) in pBAD (plasmid pCAT), expressed in E. coli Top10, extract; about 60 kDa subunit; homolog of SE1016 of ATCC12228

[2] = target: T2, E. coli katG (HPI catalase) (Escherichia coli, UniProt P13029); assay: in-gel tellurite reductase activity after native PAGE of E. coli extract; absent in katG mutant; assay type: biochemical; conditions: 1 mM K2TeO3, 1 mM NADH, 1 mM 2-mercaptoethanol, potassium phosphate pH 7, 37 °C, 12 h
T2 construct: native enzyme in extract of E. coli (Top10 with pBAD vector), resolved on native gel; tetramer; band absent in katG mutant
T2 sequence (P13029 whole entry): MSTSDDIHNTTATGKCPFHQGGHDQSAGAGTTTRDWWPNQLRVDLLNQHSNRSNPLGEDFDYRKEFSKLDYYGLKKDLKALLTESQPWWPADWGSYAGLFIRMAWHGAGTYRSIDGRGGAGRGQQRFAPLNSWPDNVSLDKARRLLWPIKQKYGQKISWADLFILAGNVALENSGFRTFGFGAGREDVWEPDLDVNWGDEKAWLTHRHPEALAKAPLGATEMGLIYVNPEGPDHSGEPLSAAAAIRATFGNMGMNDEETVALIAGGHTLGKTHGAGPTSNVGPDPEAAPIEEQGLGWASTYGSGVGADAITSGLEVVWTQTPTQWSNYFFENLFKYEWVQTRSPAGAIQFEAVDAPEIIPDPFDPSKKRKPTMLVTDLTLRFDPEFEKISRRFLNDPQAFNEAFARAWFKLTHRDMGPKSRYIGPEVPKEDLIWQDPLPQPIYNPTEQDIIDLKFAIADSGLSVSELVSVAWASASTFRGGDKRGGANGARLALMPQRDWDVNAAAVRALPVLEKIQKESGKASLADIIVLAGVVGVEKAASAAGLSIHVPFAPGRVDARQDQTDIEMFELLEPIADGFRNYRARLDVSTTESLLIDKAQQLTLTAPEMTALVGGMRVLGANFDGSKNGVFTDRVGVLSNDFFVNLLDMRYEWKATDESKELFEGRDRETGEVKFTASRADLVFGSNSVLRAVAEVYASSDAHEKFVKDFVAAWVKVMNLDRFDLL

T1 sequence (Q2PUJ9 3-504): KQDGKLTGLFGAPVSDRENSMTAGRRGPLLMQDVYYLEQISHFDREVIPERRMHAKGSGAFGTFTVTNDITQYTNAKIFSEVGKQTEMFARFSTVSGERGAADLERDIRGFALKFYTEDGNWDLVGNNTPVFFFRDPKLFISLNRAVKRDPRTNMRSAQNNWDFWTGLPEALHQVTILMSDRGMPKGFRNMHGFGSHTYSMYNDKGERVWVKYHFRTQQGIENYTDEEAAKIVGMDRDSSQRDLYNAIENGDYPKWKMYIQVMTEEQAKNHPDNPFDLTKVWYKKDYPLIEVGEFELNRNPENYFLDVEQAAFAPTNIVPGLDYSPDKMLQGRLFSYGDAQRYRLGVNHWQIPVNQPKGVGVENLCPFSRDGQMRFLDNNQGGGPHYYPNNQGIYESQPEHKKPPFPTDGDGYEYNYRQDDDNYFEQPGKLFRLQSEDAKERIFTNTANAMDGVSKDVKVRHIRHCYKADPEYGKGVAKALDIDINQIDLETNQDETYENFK

O=[Te](O)O [tellurite]
in-gel tellurite reductase activity after native PAGE of recombinant E. coli ext [1]: tellurite reductase activities of catalase are expressed at more than-four fold higher levels
in-gel tellurite reductase activity after native PAGE of E. coli extract; absent [2]: a barely detectable tellurite reductase activity
